{"source": "patent US7563899B2", "about": "“(S)-N-methylnaltrexone” (Progenics Pharmaceuticals, Inc., priority 2005, dated 2009)", "key": {"[1]": {"molecular_target": "human recombinant kappa opioid receptors (Homo sapiens, UniProt P41145)", "sequence (P41145 whole entry)": "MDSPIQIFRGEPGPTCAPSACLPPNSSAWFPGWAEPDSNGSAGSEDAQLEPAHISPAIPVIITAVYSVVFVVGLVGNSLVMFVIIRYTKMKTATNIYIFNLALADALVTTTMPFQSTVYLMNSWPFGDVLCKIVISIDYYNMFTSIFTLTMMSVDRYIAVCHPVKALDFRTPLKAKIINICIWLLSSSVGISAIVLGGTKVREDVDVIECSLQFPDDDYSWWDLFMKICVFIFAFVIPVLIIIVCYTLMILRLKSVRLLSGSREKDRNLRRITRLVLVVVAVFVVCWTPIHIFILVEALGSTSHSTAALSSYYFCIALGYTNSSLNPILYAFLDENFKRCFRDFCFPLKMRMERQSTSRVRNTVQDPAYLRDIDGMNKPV", "assay": "Radioligand binding assay, kappa opioid receptor", "procedure": "Radioligand binding assays were conducted to determine the binding specificity of S-N-methynaltrexone for μ-, κ-, and δ-opiate receptors using methods adapted from scientific literature (Simonin, F et al 1994, Mol. Pharmacol 46:1015-1021; Maguire, P. et al 1992, Eur. J. Pharmacol. 213:219-225; Simonin, F. et al PNAS USA 92(15):1431-1437; Wang, J B 1994, FEBS Lett 338:217-222)."}, "[2]": {"molecular_target": "T1, μ-opioid receptors in the guinea pig ileum (Cavia porcellus, UniProt A0ACM8Q262)", "T1 sequence (A0ACM8Q262 1-400)": "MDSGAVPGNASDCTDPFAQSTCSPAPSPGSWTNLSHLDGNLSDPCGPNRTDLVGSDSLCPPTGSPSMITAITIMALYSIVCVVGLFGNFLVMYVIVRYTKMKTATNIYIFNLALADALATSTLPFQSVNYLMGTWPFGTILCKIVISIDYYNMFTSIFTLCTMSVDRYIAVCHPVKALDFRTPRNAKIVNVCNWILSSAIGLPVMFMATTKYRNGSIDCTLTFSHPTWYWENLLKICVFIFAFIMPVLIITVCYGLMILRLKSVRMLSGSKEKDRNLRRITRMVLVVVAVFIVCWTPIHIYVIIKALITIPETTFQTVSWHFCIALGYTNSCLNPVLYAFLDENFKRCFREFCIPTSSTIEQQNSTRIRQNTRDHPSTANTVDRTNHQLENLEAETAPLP", "assay": "Guinea pig ileum bioassay, test for agonist activity (inhibition of electrically evoked twitch contractions)", "conditions": "for Response to the compound (decrease in twitch contraction amplitude): percent of control response to DAMGO 1.0E−07 M", "procedure": "(§1) Experimental Conditions. Segments of guinea pig terminal ileum were suspended in 20-ml organ baths filled with an oxygenated (95% O2 and 5% CO2) and pre-warmed (37° C.) physiological salt solution of the following composition (in mM): NaCl 118.0, KCl 4.7, MgSO4 1.2, CaCl2 2.5, KH2PO4 1.2, NaHCO3 25.0 and glucose 11.0 (pH 7.4). Additional experimental conditions were as described in Hutchinson et al. (1975) Brit. J. Pharmacol., 55: 541-546.\n(§2) Indomethacin (1 μM), nor-binaltorphimine (0.01 μM), methysergide (1 μM), ondansetron (10 μM) and GR113808 (0.1 μM) were also present throughout the experiments to prevent prostanoid release and to block the k-opioid, 5-HT2, 5-HT3 and 5-HT4 receptors, respectively. The tissues were connected to force transducers for isometric tension recordings. They were stretched to a resting tension of 1 g then allowed to equilibrate for 60 min during which time they were washed repeatedly and the tension readjusted. Thereafter, they were stimulated electrically with pulses of minimal intensity to trigger maximal contractions and 1 ms duration, delivered at 0.1 Hz by a constant current stimulator.\nTest for agonist activity. […] The different concentrations were added cumulatively and each was left in contact with the tissues until a stable response was obtained or for a maximum of 15 min.\n(§3) Analysis and Expression of Results. The parameter measured was the maximum change in the amplitude of the electrically-evoked twitch contractions induced by each compound concentration."}, "[3]": {"molecular_target": "T1, μ-opioid receptors in the guinea pig ileum", "assay": "Guinea pig ileum bioassay, test for antagonist activity (against DAMGO-induced response)", "conditions": "for Response to DAMGO (1.0E−07 M) in the presence of the compound: percent of control response to DAMGO, mean, n=2", "procedure": "as §1, §2\nTest for antagonist activity. […] Each concentration was left in contact with the tissues until a stable response was obtained or for a maximum of 15 min.\nas §3"}, "[4]": {"tested_on": "gastrointestinal transit in rats", "assay": "Gastrointestinal transit (charcoal motility) in rats, alone or before morphine", "format": "in vivo, rat", "conditions": "for Mean Motility: ratio of length of charcoal transit/total intestine length, * p<0.05 vs vehicle", "procedure": "F. et al J. Pharmacol. Exptl. Therap. 133: 400-408, 1961; D. E. Gmerek, et al J. Pharmacol. Exptl. Ther. 236: 8-13, 1986; and O. Yamamoto et al Neurogastroenterol. Motil. 10: 523-532, 1998.\nA control group of rats received 2 mL/kg of a 0.9% saline solution (n=10). After 15 minutes, rats were subcutaneously injected with saline (1 mL/kg) or morphine (3 mg/kg). A 10% suspension of activated charcoal in 0.25% methylcellulose was administered orally at 10 mL/kg to the rats 20 minutes (±2 minutes) after the subcutaneous dose of morphine or saline. The rats were euthanized 25 minutes (±3 minutes) after receiving the charcoal and the intestines were removed and lightly stretched on moist paper along a meterstick. The small intestine from pyloric sphincter to caecum was measured and the distance traveled by the charcoal as a fraction of that length was evaluated for each rat.\nStatistically significant effects were determined by ANOVA with Tukey HSD Multiple Comparison Test. Differences with p values <0.05 were considered statistically significant.\nValues for charcoal motility were expressed as a percent effect and were calculated in the following manner: The individual distance traveled by the charcoal in centimeters was divided by the total length of the intestines in centimeters (pyloric sphincter to caecum) for each rat. Mean values were calculated for each group, and the percent effect was calculated using the following formula: […]"}, "[5]": {"molecular_target": "T2, human μ (mu, MOP) receptor (Homo sapiens, UniProt P35372)", "T2 construct": "expressed in transfected cells; host or cells: CHO cells", "T2 sequence (P35372 whole entry)": "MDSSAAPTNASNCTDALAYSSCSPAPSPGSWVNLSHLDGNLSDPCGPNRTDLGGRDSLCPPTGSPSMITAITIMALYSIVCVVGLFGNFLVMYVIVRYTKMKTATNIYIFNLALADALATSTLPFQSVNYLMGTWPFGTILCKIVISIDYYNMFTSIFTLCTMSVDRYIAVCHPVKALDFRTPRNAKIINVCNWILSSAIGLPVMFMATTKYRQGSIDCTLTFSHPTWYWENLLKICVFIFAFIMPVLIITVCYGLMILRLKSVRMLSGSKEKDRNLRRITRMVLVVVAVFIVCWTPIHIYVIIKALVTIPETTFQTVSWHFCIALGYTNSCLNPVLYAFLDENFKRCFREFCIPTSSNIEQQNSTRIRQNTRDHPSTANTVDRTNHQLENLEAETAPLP", "assay": "cAMP assay in CHO cells expressing human mu receptor, agonist assay", "format": "cell-based"}, "[6]": {"molecular_target": "T2, human μ (mu, MOP) receptor", "assay": "cAMP assay in CHO cells expressing human mu receptor, antagonist assay", "format": "cell-based", "conditions": "for cAMP antagonist assay value (Table IX.2): then 30 μM DAMGO, then forskolin", "procedure": "Thus full antagonist effect was equivalent to forskolin without any addition of μ-opioid agonist.\nCells were grown to confluence in 96-well plates. Cells were washed and equilibrated in physiological buffer before analysis. 20 ul of drug, 100 uM IBMX and 10 uM forskolin were added and incubated for 25 minutes at room temperature and then the reaction was stopped with the addition of 0.1 N HCl. Extracted cAMP level was determined via competitive EIA assay utilizing alkaline phosphatase. Additional experimental conditions were as described in Toll L., J Pharmacol Exp Ther. (1995) 273(2): 721-7."}, "[7]": {"conditions": "1 mg/kg sc + Morphine 3 mg/kg sc"}, "[8]": {"conditions": "3 mg/kg sc + Morphine 3 mg/kg sc"}, "[9]": {"conditions": "10 mg/kg sc + Morphine 3 mg/kg sc"}}, "note": "Counter-ions that a name gives are not always drawn."}
{"smiles": "C[N@@+]1(CC2CC2)CC[C@]23c4c5ccc(O)c4OC2C(=O)CCC3(O)C1C5", "note": "(stereo partly drawn) [S-MNTX, (S)-N-(cyclopropylmethyl)-noroxymorphone methyl salt]", "values": [{"measurement": "Ki", "setting": "[1]", "result": 1.76, "unit": "µM"}, {"measurement": "Response to the compound (decrease in twitch contraction amplitude)", "setting": "[2]; 1.0E−04 M, mean, n=2", "result": 109, "unit": "%"}, {"measurement": "Response to the compound (decrease in twitch contraction amplitude)", "setting": "[2]; 1.0E−05 M, mean, n=2", "result": 92, "unit": "%"}, {"measurement": "Response to the compound (decrease in twitch contraction amplitude)", "setting": "[2]; 1.0E−06 M, mean, n=2", "result": 35, "unit": "%"}, {"measurement": "Response to the compound (decrease in twitch contraction amplitude)", "setting": "[2]; 1.0E−07 M, mean, n=2", "result": 5, "unit": "%"}, {"measurement": "Response to the compound (decrease in twitch contraction amplitude)", "setting": "[2]; 1.0E−08 M, mean, n=2", "result": 0, "unit": "%"}, {"measurement": "Response to the compound (decrease in twitch contraction amplitude)", "setting": "[2]; 3.0E−05 M, mean, n=2", "result": 109, "unit": "%"}, {"measurement": "Response to the compound (decrease in twitch contraction amplitude)", "setting": "[2]; 3.0E−06 M, mean, n=2", "result": 59, "unit": "%"}, {"measurement": "Response to the compound (decrease in twitch contraction amplitude)", "setting": "[2]; 3.0E−07 M, mean, n=2", "result": 16, "unit": "%"}, {"measurement": "Response to the compound (decrease in twitch contraction amplitude)", "setting": "[2]; 3.0E−08 M, mean, n=2", "result": 0, "unit": "%"}, {"measurement": "Response to the compound +naloxone", "setting": "[2]; compound 1.0E−04 M + naloxone 1.0E−07 M, percent of control response to DAMGO, mean, n=2", "result": 17, "unit": "%"}, {"measurement": "behaviour at the μ-opioid receptors in this tissue", "setting": "[2]; field-stimulated guinea pig ileum", "result": "behaves as an agonist"}, {"measurement": "EC50", "setting": "[2]; guinea pig ileum, linear regression of concentration-response curve", "result": 2, "unit": "µM"}, {"measurement": "Response to DAMGO (1.0E−07 M) in the presence of the compound", "setting": "[3]; compound 1.0E−04 M", "result": 110, "unit": "%"}, {"measurement": "Response to DAMGO (1.0E−07 M) in the presence of the compound", "setting": "[3]; compound 1.0E−05 M", "result": 105, "unit": "%"}, {"measurement": "Response to DAMGO (1.0E−07 M) in the presence of the compound", "setting": "[3]; compound 1.0E−06 M", "result": 100, "unit": "%"}, {"measurement": "Response to DAMGO (1.0E−07 M) in the presence of the compound", "setting": "[3]; compound 1.0E−07 M", "result": 100, "unit": "%"}, {"measurement": "Response to DAMGO (1.0E−07 M) in the presence of the compound", "setting": "[3]; compound 1.0E−08 M", "result": 100, "unit": "%"}, {"measurement": "Response to DAMGO (1.0E−07 M) in the presence of the compound", "setting": "[3]; compound 3.0E−05 M", "result": 109, "unit": "%"}, {"measurement": "Response to DAMGO (1.0E−07 M) in the presence of the compound", "setting": "[3]; compound 3.0E−06 M", "result": 102, "unit": "%"}, {"measurement": "Response to DAMGO (1.0E−07 M) in the presence of the compound", "setting": "[3]; compound 3.0E−07 M", "result": 100, "unit": "%"}, {"measurement": "Response to DAMGO (1.0E−07 M) in the presence of the compound", "setting": "[3]; compound 3.0E−08 M", "result": 100, "unit": "%"}, {"measurement": "Antagonist activity IC50 value", "setting": "[3]; guinea pig ileum, against DAMGO 1.0E−07 M", "result": "No antagonist activity"}, {"measurement": "Percent Decrease", "setting": "[4]; [7]", "result": 54, "unit": "%"}, {"measurement": "Mean Motility", "setting": "[4]; [7]", "result": "0.281*"}, {"measurement": "Percent Decrease", "setting": "[4]; [8]", "result": 57, "unit": "%"}, {"measurement": "Mean Motility", "setting": "[4]; [8]", "result": "0.258*"}, {"measurement": "Percent Decrease", "setting": "[4]; [9]", "result": 80, "unit": "%"}, {"measurement": "Mean Motility", "setting": "[4]; [9]", "result": "0.122*"}, {"measurement": "Percent Decrease", "setting": "[4]; 10 mg/kg sc + Saline", "result": 21, "unit": "%"}, {"measurement": "Mean Motility", "setting": "[4]; 10 mg/kg sc + Saline", "result": "0.476*"}, {"measurement": "effect on GI transit in combination with / prior to morphine", "setting": "[4]; rats, sc, 15 minutes before morphine 3 mg/kg", "result": "dramatic synergistic agonist effect in decreasing GI motility"}, {"measurement": "effect on GI transit when administered alone", "setting": "[4]; rats, sc, alone", "result": "decreased GI motility"}, {"measurement": "EC50", "setting": "[5]; CHO cells, human recombinant mu receptor, 10 uM forskolin, 100 uM IBMX, read-out: EC50 (agonist response, inhibition of forskolin-induced cAMP)", "result": 0.6, "unit": "µM"}, {"measurement": "nature of the agonist response", "setting": "[5]; cAMP agonist assay", "result": "complete (not partial)"}, {"measurement": "cAMP agonist assay value (Table IX.1)", "setting": "[5]; log{M} conc −4.0", "result": 3}, {"measurement": "cAMP agonist assay value (Table IX.1)", "setting": "[5]; log{M} conc −4.5", "result": "−3"}, {"measurement": "cAMP agonist assay value (Table IX.1)", "setting": "[5]; log{M} conc −5.0", "result": 4}, {"measurement": "cAMP agonist assay value (Table IX.1)", "setting": "[5]; log{M} conc −5.5", "result": 11}, {"measurement": "cAMP agonist assay value (Table IX.1)", "setting": "[5]; log{M} conc −6.0", "result": 32}, {"measurement": "cAMP agonist assay value (Table IX.1)", "setting": "[5]; log{M} conc −6.5", "result": 66}, {"measurement": "cAMP agonist assay value (Table IX.1)", "setting": "[5]; log{M} conc −7.0", "result": 70}, {"measurement": "cAMP agonist assay value (Table IX.1)", "setting": "[5]; log{M} conc −7.5", "result": 79}, {"measurement": "cAMP agonist assay value (Table IX.1)", "setting": "[5]; log{M} conc −8.0", "result": 104}, {"measurement": "cAMP agonist assay value (Table IX.1)", "setting": "[5]; log{M} conc −9.0", "result": 86}, {"measurement": "antagonist effect in cAMP assay", "setting": "[6]; cAMP antagonist assay", "result": "no antagonist effect"}, {"measurement": "cAMP antagonist assay value (Table IX.2)", "setting": "[6]; log{M} conc −4.0", "result": "−13"}, {"measurement": "cAMP antagonist assay value (Table IX.2)", "setting": "[6]; log{M} conc −4.5", "result": "−13"}, {"measurement": "cAMP antagonist assay value (Table IX.2)", "setting": "[6]; log{M} conc −5.0", "result": "−9"}, {"measurement": "cAMP antagonist assay value (Table IX.2)", "setting": "[6]; log{M} conc −5.5", "result": "−8"}, {"measurement": "cAMP antagonist assay value (Table IX.2)", "setting": "[6]; log{M} conc −6.0", "result": "−1"}, {"measurement": "cAMP antagonist assay value (Table IX.2)", "setting": "[6]; log{M} conc −6.5", "result": 9}, {"measurement": "cAMP antagonist assay value (Table IX.2)", "setting": "[6]; log{M} conc −7.0", "result": 5}, {"measurement": "cAMP antagonist assay value (Table IX.2)", "setting": "[6]; log{M} conc −7.5", "result": 6}, {"measurement": "cAMP antagonist assay value (Table IX.2)", "setting": "[6]; log{M} conc −8.0", "result": 4}, {"measurement": "cAMP antagonist assay value (Table IX.2)", "setting": "[6]; log{M} conc −9.0", "result": 0}]}
